# ± gives the standard deviation.
# Experiments:
# [1] = tested on: Toxoplasma gondii RH tachyzoites; test: % growth inhibition vs DMSO (48 h luciferase); higher = more inhibition; conditions: 10 µM
# [2] = tested on: Plasmodium falciparum K1 (chloroquine resistant); test: R50 (50% reduction of ring formation, egress/invasion); higher = less potent
# Procedure: (§1)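 P. falciparum asexual blood stages. EC50: sorbitol-synchronized 3D7 rings were treated with 2-fold dilutions from 10 µM for 60 h, with parasitemia read by SYBR Green I fluorescence; EC50 listed as 10 means not determined and is left out. Stage transition screen: ~40-42 hpi schizonts were treated at 1, 3 and 10 µM; new rings were counted by Hoechst flow cytometry and % inhibition is relative to DMSO controls (mean of 3 experiments). R50: concentration giving 50% reduction of new ring formation versus DMSO in 3D7, K1 and KH004-003, from flow cytometry after 12-20 h treatment of schizonts.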
# [3] = tested on: Plasmodium falciparum 3D7; test: as above
# Procedure: as §1
# [4] = tested on: Plasmodium falciparum KH004-003 (artemisinin resistant); test: as above
# Procedure: as §1
# [5] = tested on: Plasmodium falciparum 3D7; test: % inhibition of schizont-to-ring transition vs DMSO; higher = more inhibition
# Method in brief: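 Schizont-to-ring transition inhibition compares new ring formation with that in vehicle controls. Synchronised P. falciparum schizonts (about 40–42 hours post-invasion, 1% parasitemia, 2.5% hematocrit, AlbuMAX-supplemented RPMI) were exposed to 1, 3 or 10 µM compound, after which rings were counted by Hoechst 33342 flow cytometry across three experiments.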
# [6] = tested on: Plasmodium falciparum 3D7; test: EC50 growth inhibition (60 h, SYBR Green); conditions: stage: ring-stage start
# [7] = tested on: Toxoplasma gondii RH tachyzoites; test: median egress time after A23187 ionophore; higher = stronger egress inhibition; conditions: 10 µM; pretreatment time: 24 h
# Procedure: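 T. gondii RH tachyzoites expressing firefly luciferase were grown in HFF monolayers for 48 h with compound. % growth inhibition at 10 µM and EC50 (2-fold dilutions from 10 µM) were read by luminescence relative to 1% DMSO; EC50 listed as 10 (not determined, <80% inhibition) is left out. Plaque assays: 50 tachyzoites per well with 10 µM compound for 8-10 days, giving plaque count and area by crystal violet/ImageJ. Egress: median time to egress after 1 µM A23187 ionophore following 24 h of 10 µM compound (DMSO ~1.8 min; >10 = no egress within 10 min).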
# [8] = tested on: Toxoplasma gondii RH tachyzoites; test: plaque count per well; higher = less inhibition; extreme values may be limits of the assay; conditions: 10 µM; 8-10 days
# Method in brief: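 Delayed-death inhibition of parasite growth is read from the number of plaques per well. Fifty T. gondii RH tachyzoites went into each well of six-well plates with confluent HFF monolayers preseeded with compound at 10 µM, and after 8 to 10 days the plates were fixed with methanol, stained with crystal violet and counted in ImageJ.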
# [9] = biological target: Toxoplasma gondii RH tachyzoites; test: EC50 growth inhibition (48 h luciferase)
# 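Throughout, for % growth inhibition vs DMSO (48 h luciferase): tested in triplicate wells of 96-well plates on confluent HFF monolayers, with 1% DMSO wells as negative control in four replicates.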
Compound,% growth inhibition [1] [%],R50 [2] [µM],R50 [3] [µM],R50 [4] [µM],% inhibition of schizont-to-ring transition ([5]; 1 µM) [%],% inhibition of schizont-to-ring transition ([5]; 3 µM) [%],% inhibition of schizont-to-ring transition ([5]; 10 µM) [%],EC50 growth inhibition [6] [nM],median egress time [7] [min],plaque count per well [8],EC50 growth inhibition [9] [nM]
COc1ccc2c(c1)C1(Nc3ccccc3-c3nc4ccccc4n31)C(=O)N2 (stereo unspecified),47.3 ± 3.5,0.768,0.892,0.922,62,64.1,68.6,138,2.33,–,–
O=C(NC1CCN(Cc2ccccc2)CC1)c1cc(C(=O)NC2CCN(Cc3ccccc3)CC2)cc(C(=O)NC2CCN(Cc3ccccc3)CC2)c1,18.9 ± 16,0.179,3.38,1.42,25.8,30.4,53.7,1670,2.33,35,–
COc1cccc(NC(=O)[C@H](C(C)C)n2c(=O)[nH]c3ccccc3c2=O)c1,76.9 ± 9.3,0.212,0.28,0.183,79.8,80.5,79.4,51.4,2.67,–,–
CCOC(=O)c1cn(CC)c2cc(N3CCCCC3)c(F)cc2c1=O,67.3 ± 6.7,1.48,0.738,0.155,45.5,61.4,65.5,670,–,–,–
Cc1sc2ncnc(Sc3nc4ccccc4[nH]3)c2c1C,95.05 ± 0.6,1.69,2.43,0.464,47.8,59.6,77.8,860,–,–,2950
COc1cccc(C2(C)Nc3ccccc3-c3nc4ccccc4n32)c1 (stereo unspecified),12.6 ± 12,1.17,1.13,0.715,66,81.1,81.2,217,> 10,21,–
CC1(c2ccccc2)Nc2ccccc2-c2nc3ccccc3n21 (stereo unspecified),24.3 ± 8,0.955,0.768,0.275,56.1,77.5,79,194,4.13,–,–
COc1ccc(CCn2c(=N)c(C(=O)NCc3cccnc3)cc3c(=O)n4cccc(C)c4nc32)cc1,75.9 ± 1.6,2.1,2.26,0.771,40.3,65.1,66.9,353,2.13,–,–
OC(Cn1nnc2ccccc21)Cn1c2ccc(Br)cc2c2cc(Br)ccc21 (stereo unspecified),22.8 ± 3.4,1.23,2.87,0.102,< 0,30.6,45.7,–,–,–,–
COc1cccc(O)c1CN1CCC2(CCCN(Cc3ccc(F)cc3)C2)C1 (stereo unspecified),79.6 ± 3.5,0.805,1.91,1.23,42.2,68.4,72.4,409,–,–,–
COc1ccc(C2c3ccc4ccccc4c3Oc3ncn(CCCn4ccnc4)c(=N)c32)cc1OC (stereo unspecified),65.4 ± 9,2.92,2.5,2.4,40,73.6,75.6,383,2.27,–,–
Cc1cc(NC(=O)C2c3ccccc3C(=O)N(CC(C)C)C2c2cccs2)no1 (stereo unspecified),< 0,0.307,0.363,0.43,76.6,76.8,78.6,64,5.73,29,–
COc1cc(OC)c(N(C)C(=O)c2cc3c(s2)-c2ccccc2S(=O)(=O)C3)cc1Cl,< 0,0.933,0.868,0.352,55.9,60,66.3,1190,8.4,33,–
COc1ccccc1C(=O)ON=C(N)Cc1cccc2ccccc12,73.6 ± 2.5,3.93,3.9,1.25,12,43.7,78.8,244,–,–,–
CC(C)(C)c1ccc(O)c(CNC2CCCCC2)c1,7.99 ± 2.4,0.119,0.305,0.215,70.4,76.8,76.9,93.3,2.8,0,–
CCOc1c(Cl)cc(CNC(C)C(O)c2ccccc2)cc1OC (stereo unspecified),18.8 ± 18,1.56,3.32,2.58,2.61,19.5,72.7,926,3.47,0,–
CNCCCNc1ccnc2cc(Cl)ccc12,21.4 ± 19,4.11,0.345,3.81,61.4,66.5,71.6,25.8,2.4,–,–
Cc1cc(Nc2ccc(OCc3ccccc3)cc2)nc2cc(O)ccc12,100.3 ± 0.21,0.291,0.97,0.702,64.2,71.9,69.8,195,–,–,2850
CCOc1cc2c(cc1OCC)C(c1cc(OC)c(O)cc1Cl)NCC2 (stereo unspecified),37.4 ± 13,0.342,2.71,1.32,11.2,60,76.1,711,2.27,–,–
CC(=O)NCCc1nc2ccccc2n1Cc1ccc(C(C)C)cc1,< 0,3.69,3.03,3.03,37.3,61,78.1,900,5.47,33,–
COc1ccc(NC(=O)C2c3ccccc3C(=O)N(CC(C)C)C2c2cccs2)cc1Cl (stereo unspecified),< 0,0.183,0.156,0.204,75.7,74.9,78.9,1040,–,28,–
CCOc1ccccc1CNC(=O)C1c2ccccc2C(=O)N(CC(C)C)C1c1cccs1 (stereo unspecified),70.7 ± 11,2.11,2.06,2.32,38.3,65.3,74.8,649,–,–,–
CCN(Cc1ccccc1)C1CCN(Cc2cc(Br)ccc2O)CC1,< 0,0.491,0.998,0.532,59.3,74.2,76.9,310,> 10,24,–
CCOC(=O)c1c(NC(=O)c2ccccc2)sc2c(O)c(CN(CC)CC)ccc12,65.8 ± 12,0.103,0.186,0.138,57.2,69.3,71.9,8.57,2.13,–,–
Cc1cc(Nc2ccc(C)c(Cl)c2)n2nc(C(F)(F)F)nc2n1,23.8 ± 9.5,0.212,0.274,0.1,51.6,56.6,65.1,12.5,2.46,–,–
CN1CCN(c2ccc(Nc3c4ccccc4nc4ccccc34)cc2)CC1,100 ± 0.36,1.94,1.39,0.883,68.6,75.5,77.1,59.9,–,–,2320
